These results are taken from paper PMC7026418, “The kinase polypharmacology landscape of clinical PARP inhibitors” (Scientific Reports, 2020).

Holding throughout (test): biochemical
Parameters in all cases: DiscoveRx KINOMEscan active site-directed competition binding; percent of control kinase bound to immobilised ligand

Assay [1] addresses T1, ABL1-nonphosphorylated (Homo sapiens, UniProt P00519).
T1 construct: nonphosphorylated

The target of assay [2] is T2, TIE2 (Homo sapiens, UniProt Q02763).
T2 construct: gene TEK
T2 sequence (Q02763 whole entry): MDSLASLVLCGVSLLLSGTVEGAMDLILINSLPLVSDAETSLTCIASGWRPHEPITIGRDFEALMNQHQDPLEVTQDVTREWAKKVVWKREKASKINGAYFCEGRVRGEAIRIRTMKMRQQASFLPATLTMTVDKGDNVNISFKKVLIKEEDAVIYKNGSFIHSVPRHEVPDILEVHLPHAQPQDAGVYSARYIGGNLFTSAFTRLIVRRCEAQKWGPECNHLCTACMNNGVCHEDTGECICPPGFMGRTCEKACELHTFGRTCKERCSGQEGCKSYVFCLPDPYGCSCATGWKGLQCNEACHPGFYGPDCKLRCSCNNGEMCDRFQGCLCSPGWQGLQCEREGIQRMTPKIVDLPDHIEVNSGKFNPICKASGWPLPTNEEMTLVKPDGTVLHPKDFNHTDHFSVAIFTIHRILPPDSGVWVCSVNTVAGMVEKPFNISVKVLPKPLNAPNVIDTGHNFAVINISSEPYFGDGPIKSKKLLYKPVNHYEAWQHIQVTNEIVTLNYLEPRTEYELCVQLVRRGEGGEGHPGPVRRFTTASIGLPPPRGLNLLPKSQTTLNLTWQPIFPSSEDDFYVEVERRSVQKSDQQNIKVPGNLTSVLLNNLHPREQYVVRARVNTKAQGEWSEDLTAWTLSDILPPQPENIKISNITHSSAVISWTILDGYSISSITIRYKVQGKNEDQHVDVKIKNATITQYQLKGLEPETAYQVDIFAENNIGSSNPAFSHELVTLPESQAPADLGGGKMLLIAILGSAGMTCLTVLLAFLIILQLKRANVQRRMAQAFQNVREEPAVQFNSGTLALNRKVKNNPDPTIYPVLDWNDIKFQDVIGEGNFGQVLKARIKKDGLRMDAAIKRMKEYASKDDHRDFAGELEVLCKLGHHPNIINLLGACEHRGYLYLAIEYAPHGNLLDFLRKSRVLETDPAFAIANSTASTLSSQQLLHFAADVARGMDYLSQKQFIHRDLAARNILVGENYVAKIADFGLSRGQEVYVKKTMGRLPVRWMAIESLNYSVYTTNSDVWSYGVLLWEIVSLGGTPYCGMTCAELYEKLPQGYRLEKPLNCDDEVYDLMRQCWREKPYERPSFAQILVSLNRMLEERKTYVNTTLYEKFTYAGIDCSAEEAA

The target of assay [3] is T3, TAK1 (Homo sapiens, UniProt O43318).
T3 construct: gene MAP3K7
T3 sequence (O43318 1-606): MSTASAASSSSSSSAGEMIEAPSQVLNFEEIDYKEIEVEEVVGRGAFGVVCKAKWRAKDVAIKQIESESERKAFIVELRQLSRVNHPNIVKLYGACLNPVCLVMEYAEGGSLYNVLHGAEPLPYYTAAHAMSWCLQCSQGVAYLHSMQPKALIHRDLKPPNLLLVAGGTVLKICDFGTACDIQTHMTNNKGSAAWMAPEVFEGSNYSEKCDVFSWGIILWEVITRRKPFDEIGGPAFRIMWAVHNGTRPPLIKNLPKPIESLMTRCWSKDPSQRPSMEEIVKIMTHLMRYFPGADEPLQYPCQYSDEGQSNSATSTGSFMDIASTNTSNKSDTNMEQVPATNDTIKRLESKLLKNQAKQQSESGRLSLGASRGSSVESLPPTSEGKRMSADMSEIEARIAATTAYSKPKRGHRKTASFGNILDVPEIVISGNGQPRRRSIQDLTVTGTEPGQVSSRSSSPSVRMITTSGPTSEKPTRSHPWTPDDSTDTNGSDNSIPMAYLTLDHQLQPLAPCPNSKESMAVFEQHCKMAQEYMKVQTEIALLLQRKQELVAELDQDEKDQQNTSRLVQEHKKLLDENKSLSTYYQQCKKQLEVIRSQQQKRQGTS

In assay [4] the target is GRK4 (Homo sapiens, UniProt P32298).
GRK4, sequence (P32298 whole entry): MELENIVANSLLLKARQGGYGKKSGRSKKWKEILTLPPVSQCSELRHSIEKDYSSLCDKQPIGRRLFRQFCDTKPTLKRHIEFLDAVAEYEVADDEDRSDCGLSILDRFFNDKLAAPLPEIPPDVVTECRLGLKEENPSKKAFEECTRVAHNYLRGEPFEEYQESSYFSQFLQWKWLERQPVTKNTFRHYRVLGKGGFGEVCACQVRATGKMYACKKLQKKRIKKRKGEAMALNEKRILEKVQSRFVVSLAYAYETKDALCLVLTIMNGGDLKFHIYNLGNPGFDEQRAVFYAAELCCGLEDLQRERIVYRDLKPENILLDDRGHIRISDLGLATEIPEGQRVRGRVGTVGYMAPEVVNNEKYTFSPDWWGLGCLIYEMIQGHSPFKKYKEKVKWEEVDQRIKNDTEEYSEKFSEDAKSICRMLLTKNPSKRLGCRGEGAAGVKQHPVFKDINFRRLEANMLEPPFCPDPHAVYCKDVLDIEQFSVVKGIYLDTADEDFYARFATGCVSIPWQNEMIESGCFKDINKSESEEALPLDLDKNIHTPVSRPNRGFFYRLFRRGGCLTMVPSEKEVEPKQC
The target of assay [5] is T4, TTK (Homo sapiens, UniProt P33981).
T4 sequence (P33981 1-857): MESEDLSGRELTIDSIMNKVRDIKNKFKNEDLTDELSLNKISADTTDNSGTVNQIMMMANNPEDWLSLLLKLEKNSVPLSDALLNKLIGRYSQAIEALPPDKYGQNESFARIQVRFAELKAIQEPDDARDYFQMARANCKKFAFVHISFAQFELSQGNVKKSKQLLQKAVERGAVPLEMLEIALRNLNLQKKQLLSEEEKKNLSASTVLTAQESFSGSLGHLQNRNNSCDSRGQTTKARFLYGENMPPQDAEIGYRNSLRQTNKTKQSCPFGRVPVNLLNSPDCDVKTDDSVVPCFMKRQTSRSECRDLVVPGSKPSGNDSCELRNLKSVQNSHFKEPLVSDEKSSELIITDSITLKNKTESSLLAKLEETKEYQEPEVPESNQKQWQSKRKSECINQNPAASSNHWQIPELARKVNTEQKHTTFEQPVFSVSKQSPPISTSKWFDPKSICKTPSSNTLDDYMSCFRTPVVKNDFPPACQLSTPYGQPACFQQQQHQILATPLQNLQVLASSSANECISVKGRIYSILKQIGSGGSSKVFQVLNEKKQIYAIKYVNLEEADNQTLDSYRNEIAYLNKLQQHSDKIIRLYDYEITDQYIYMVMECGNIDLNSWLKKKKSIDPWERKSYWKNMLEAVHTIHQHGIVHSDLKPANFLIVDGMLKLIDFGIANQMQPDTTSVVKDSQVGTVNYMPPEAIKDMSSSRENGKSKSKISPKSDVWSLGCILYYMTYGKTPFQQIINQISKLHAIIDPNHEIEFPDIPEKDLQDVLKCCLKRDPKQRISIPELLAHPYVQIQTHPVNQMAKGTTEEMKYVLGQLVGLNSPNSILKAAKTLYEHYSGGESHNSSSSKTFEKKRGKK

[6] abbreviates: read-out: Niraparib (MK-4827) / %Ctrl @ 10000nM.
[7] abbreviates: read-out: Olaparib / %Ctrl @ 10000nM.
The mark [8] stands for this setting: read-out: Rucaparib / %Ctrl @ 10000nM, binding competition, % of control.
Where [9] appears, read: read-out: Talazoparib (BMN 673) / %Ctrl @ 10000nM.

SMILES strings stand for the structures. Where two headings read alike, the source gives them in different places.

T1 sequence (P00519 whole entry): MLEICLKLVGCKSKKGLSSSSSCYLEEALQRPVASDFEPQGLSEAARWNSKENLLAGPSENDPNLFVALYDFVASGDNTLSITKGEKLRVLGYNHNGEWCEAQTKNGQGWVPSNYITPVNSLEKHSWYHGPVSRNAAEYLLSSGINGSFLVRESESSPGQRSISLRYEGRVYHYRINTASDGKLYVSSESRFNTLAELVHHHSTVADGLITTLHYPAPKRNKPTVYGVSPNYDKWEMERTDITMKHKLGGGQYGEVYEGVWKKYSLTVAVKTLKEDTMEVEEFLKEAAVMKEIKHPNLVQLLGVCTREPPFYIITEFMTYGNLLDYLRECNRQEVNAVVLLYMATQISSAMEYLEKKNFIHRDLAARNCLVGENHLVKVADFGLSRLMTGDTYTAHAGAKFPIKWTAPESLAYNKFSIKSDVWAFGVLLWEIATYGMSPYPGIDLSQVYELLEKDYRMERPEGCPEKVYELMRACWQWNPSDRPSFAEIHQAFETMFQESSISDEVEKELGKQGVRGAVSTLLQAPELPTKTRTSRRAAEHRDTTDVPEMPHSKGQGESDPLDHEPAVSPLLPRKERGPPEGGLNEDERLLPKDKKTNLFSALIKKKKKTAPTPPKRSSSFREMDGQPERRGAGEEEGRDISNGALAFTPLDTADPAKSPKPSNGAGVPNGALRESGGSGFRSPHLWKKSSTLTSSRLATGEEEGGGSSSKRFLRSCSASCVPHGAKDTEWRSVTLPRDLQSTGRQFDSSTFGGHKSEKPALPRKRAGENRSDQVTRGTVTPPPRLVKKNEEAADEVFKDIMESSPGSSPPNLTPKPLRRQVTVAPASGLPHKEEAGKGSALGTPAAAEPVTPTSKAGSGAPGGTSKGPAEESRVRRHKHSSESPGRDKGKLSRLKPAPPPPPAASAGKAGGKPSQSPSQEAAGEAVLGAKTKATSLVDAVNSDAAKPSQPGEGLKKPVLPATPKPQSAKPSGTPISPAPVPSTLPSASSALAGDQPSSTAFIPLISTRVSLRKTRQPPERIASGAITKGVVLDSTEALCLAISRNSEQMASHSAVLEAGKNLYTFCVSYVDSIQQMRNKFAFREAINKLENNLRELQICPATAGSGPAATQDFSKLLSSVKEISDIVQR

Regarding `NC(=O)c1cccc2cn(-c3ccc([C@@H]4CCCNC4)cc3)nc12` [Niraparib], the percent of control binding at 10 µM in assay [1] (setting [6]) is 94%; in assay [2] (setting [6]), 98%; in assay [3] (setting [6]) it was 38%; in assay [4] (setting [6]) it was 62%; in assay [5] (setting [6]) it was 54%.

As for `O=C(c1cc(Cc2n[nH]c(=O)c3ccccc23)ccc1F)N1CCN(C(=O)C2CC2)CC1` [Olaparib], the percent of control binding at 10 µM in assay [1] (setting [7]) was determined as 87%; in assay [2] (setting [7]), 100%; in assay [3] (setting [7]) it was 77%; in assay [4] (setting [7]), 91%; in assay [5] (setting [7]) it was 90%.

As to `CNCc1ccc(-c2[nH]c3cc(F)cc4c3c2CCNC4=O)cc1` [Rucaparib], the percent of control binding at 10 µM in assay [1] (setting [8]) was determined as 82%; in assay [2] (setting [8]), 92%; in assay [3] (setting [8]), 38%; in assay [4] (setting [8]) it was 100%; in assay [5] (setting [8]), 20%.

Take `Cn1ncnc1[C@H]1c2n[nH]c(=O)c3cc(F)cc(c23)N[C@@H]1c1ccc(F)cc1` [Talazoparib]: the percent of control binding at 10 µM was found to be 100% in assay [1] (setting [9]); 100% in assay [2] (setting [9]); 100% in assay [3] (setting [9]); 100% in assay [4] (setting [9]); 99% in assay [5] (setting [9]).
